Source: US20240255506A1, “PAIRED-CELL PROFILING SYSTEMS FOR HIGH-THROUGHPUT SCREENING SYNCYTIUM FORMATION” (priority 2023, published 2024)

Columns and labels:
[1] = test system: SARS-COV-2 spike-induced syncytium formation in A549-ACE2 cells; assay type: cell-based; conditions: A549-ACE2-GFP1-10 cells pre-incubated with drug 20 min in FBS-free medium, then mixed with 293T-spike-GFP11-mCherry cells, 24 h
[2] = test system: SARS-COV-2-induced syncytium formation in Vero E6 cells; conditions: drug screen with more than 3,000 approved drugs (ref. 19); cited from earlier work
SARS-COV-2 = conditions: Vero E6 cells; previous study (ref. 25); cited from earlier work

Row | SMILES | cell-cell fusion process (syncytium formation) [1] | SARS-COV-2-induced syncytium formation [2] | SARS-COV-2-induced cytotoxicity (SARS-COV-2)
1 | O=C1NC(=NS(=O)(=O)c2cccc3ccccc23)S/C1=C\c1ccc(Br)cc1 [Pitstop 2] | suppressed the cell-cell fusion process | – | –
2 | COCCCC/C(=N\OCCN)c1ccc(C(F)(F)F)cc1 [fluvoxamine] | – | some inhibitory effects | –
3 | CC(CN1c2ccccc2Sc2ccccc21)N(C)C (stereo not shown) [promethazine] | – | some inhibitory effects | reduces SARS-COV-2-induced cytotoxicity
